Reference: patent US7767789B2, “Truncated proteins as cancer markers” (University Hopitals of Cleveland, priority 2005, dated 2010)

How the values were obtained:
[1] = test system: HEK-293 cells (wild-type, expressing P2X7 or P2X7-j); test: Cell-number index of HEK-293 cells grown in culture; assay type: cell-based, human; conditions: 100 micromolar BzATP
Procedure: Alterations in cell number for HEK-293 cells, HEK-293 cells expressing P2X7-RFL, and HEK-293 cells expressing P2X7-RTR grown in culture were studied. FIG. 15A. The three cells lines were grown in culture and viable cells were counted for a period of 3 days. The data are presented as cell number index versus days in culture. […] For example, a P2X7-RFL receptor protein may facilitate cellular apoptosis (infra).
The cell number of wild-type HEK-293 cells and of HEK-293 cells expressing P2X7-j protein increased to a greater degree than that of HEK-293 cells expressing the P2X7 protein. FIG. 15A.

MDCK-P2X7 cells = test: Apoptosis, Cell Death Detection ELISA-PLUS, MDCK cells; assay type: cell-based, canine; conditions: doxycycline treated MDCK-P2X7 cells; BzATP 50 micromolar
Procedure: (§1) Baseline and BzATP-induced apoptosis in MDCK cells and in HEK-293 cells expressing P2X7 and P2X7-j proteins were studied. FIG. 17. […] Cells were treated with BzATP (50 micromolar) to activate the P2X7 receptors. Apoptosis was quantified using Cell Death Detection ELISA-PLUS photometric enzyme-immunoassay that determines cytoplasmic histone-associated-DNA-fragments (mono and oligonucleosomes) after spontaneous or induced cell death (Roche, Cat. No. 1774425, 96 tests). […] Expression of the P2X7-j proteins either had no effect (HEK-293 cells) or may have decreased apoptosis (MDCK cells).

HEK-293-P2X7 cells = test: Apoptosis, Cell Death Detection ELISA-PLUS, HEK-293 cells; assay type: cell-based, human; conditions: BzATP 50 micromolar
Procedure: as §1

[2] = test system: HEK-293 cells expressing P2X7 or P2X7-j; test: Cell selection: growth with BzATP and immunoblot of P2X7/P2X7-j protein, HEK-293; assay type: cell-based, human
Procedure: Growth of various cell lines expressing P2X7 and/or P2X7-j in the presence or absence of BzATP was performed to determine how P2X7 receptors may affect cell selection over time. FIG. 23. HEK-293 cells expressing P2X7, HEK-293 cells expressing P2X7-j, or HeLa cells, which express both P2X7 and P2X7-j were separately grown in culture, in the presence or absence of 50 micromolar BzATP for seven (7) days. At various time points, samples of the cells were taken and examined for expression of P2X7 and/or P2X7-j protein by immunoblotting using a P2X7-specific antibody. This antibody was obtained from Alomone Labs (Jerusalem, Israel) and was reactive with the extracellular domain of P2X7 protein. Amino acids 136-152 of the mouse P2X7 receptor ([…]; (SEQ ID NO:7)) were used as the antigen to prepare the antibody. A labeled secondary antibody was used to visualize reactive protein bands. By layering equal amounts of total protein (15 micrograms) it was possible to compare the relative expression of the P2X7 and/or P2X7-j proteins by the cells.

[3] = biological target: T1, P2X7 channel (HEK-293 cells expressing P2X7 or P2X7-j) (Homo sapiens, UniProt Q99572, R270H/Y155H); assay type: cell-based; conditions: HEK-293-P2X7 cells; 100 micromolar BzATP
T1 construct: expressed in transfected cells; host or cells: HEK-293
T1 sequence (Q99572 whole entry Y155H/R270H): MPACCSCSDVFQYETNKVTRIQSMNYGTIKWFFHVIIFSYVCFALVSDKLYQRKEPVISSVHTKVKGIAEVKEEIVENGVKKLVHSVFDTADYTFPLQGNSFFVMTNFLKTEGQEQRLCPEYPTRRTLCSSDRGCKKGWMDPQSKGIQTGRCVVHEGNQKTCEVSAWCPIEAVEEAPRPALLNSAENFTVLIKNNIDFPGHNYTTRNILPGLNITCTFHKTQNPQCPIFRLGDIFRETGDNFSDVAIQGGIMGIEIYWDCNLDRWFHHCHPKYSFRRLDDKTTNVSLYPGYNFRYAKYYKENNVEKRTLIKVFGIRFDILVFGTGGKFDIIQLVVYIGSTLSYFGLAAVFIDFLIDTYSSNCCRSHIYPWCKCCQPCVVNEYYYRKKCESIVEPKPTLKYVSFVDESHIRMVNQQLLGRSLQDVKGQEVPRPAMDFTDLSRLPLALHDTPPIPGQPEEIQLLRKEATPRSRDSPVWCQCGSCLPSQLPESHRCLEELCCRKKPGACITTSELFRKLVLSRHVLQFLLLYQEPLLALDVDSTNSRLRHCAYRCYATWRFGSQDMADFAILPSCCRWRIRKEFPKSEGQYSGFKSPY

[4] = biological target: T2, P2X7 channel (HEK-293 cells expressing P2X7 or P2X7-j) (Homo sapiens, UniProt Q99572, Y155H); assay type: cell-based; conditions: HEK-293-P2X7-j cells compared to HEK-293-P2X7 cells
T2 construct: expressed in transfected cells; host or cells: HEK-293
T2 sequence (Q99572 1-258 isoform Q99572-9 Y155H): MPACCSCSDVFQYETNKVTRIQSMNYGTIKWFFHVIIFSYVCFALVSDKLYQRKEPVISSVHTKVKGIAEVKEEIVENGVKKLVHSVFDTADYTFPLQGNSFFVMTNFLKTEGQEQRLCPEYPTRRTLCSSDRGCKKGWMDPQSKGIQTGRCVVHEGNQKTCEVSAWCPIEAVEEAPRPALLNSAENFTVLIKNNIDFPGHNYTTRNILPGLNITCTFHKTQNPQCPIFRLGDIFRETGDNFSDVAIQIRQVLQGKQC

[5] = test system: P2X7 channel (HEK-293 cells expressing P2X7 or P2X7-j); assay type: cell-based, human; conditions: P2X7 plus P2X7-j HEK-293 cells compared to P2X7 HEK-293 cells
[6] = biological target: T3, P2X7-mediated pore (HEK-293 cells expressing P2X7 or P2X7-j) (Homo sapiens, UniProt Q99572, R270H/Y155H); assay type: cell-based; conditions: HEK-293-P2X7 cells; BzATP 100 micromolar
T3 construct: expressed in transfected cells; host or cells: HEK-293
T3 sequence (Q99572 whole entry Y155H/R270H): as the sequence (Q99572 whole entry Y155H/R270H) above

[7] = biological target: T4, P2X7-mediated pore (HEK-293 cells expressing P2X7 or P2X7-j) (Homo sapiens, UniProt Q99572, Y155H); assay type: cell-based; conditions: HEK-293-P2X7-j cells compared to HEK-293-P2X7 cells
T4 construct: expressed in transfected cells; host or cells: HEK-293
T4 sequence (Q99572 1-258 isoform Q99572-9 Y155H): as the sequence (Q99572 1-258 isoform Q99572-9 Y155H) above

[8] = test system: P2X7-mediated pore (HEK-293 cells expressing P2X7 or P2X7-j); assay type: cell-based, human; conditions: P2X7 plus P2X7-j HEK-293 cells compared to P2X7 HEK-293 cells
[9] = biological target: T5, full-length human P2X7 receptor (HEK-293-hP2X7-R cells) (Homo sapiens, UniProt Q99572); test: Ethidium bromide influx in HEK-293-hP2X7-R and wild-type HEK293 cells on filters; assay type: cell-based
T5 construct: For transfections, the full length human P2X7 receptor; expressed in transfected cells; host or cells: HEK-293, pcDNA-6 vector
T5 sequence (Q99572 1-595): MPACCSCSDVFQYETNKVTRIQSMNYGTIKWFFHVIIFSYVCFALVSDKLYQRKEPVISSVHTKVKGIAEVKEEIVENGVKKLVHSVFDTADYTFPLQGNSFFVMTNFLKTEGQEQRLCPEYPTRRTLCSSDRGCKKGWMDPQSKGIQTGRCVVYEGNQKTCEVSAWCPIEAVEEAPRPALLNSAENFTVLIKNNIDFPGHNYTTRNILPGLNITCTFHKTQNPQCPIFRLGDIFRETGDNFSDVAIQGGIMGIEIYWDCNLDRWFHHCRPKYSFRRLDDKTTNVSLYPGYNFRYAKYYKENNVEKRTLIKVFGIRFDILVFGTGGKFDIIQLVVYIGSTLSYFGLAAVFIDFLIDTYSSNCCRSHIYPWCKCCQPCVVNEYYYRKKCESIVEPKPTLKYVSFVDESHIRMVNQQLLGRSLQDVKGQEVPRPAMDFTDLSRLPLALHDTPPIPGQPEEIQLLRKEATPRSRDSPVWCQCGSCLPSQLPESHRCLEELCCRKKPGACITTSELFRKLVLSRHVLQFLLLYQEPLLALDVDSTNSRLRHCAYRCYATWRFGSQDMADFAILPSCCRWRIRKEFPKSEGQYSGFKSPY

Substance: 2′-3′-O-(4-benzoylbenzoyl)adenosine 5′-triphosphate [BzATP]
- growth of cells (cell number) ([1]; HEK-293-P2X7-j cells): no significant effect
- growth of cells (cell number) ([1]; HEK-293-P2X7 cells): significantly decreased further the growth
- growth of cells (cell number) ([1]; wild-type HEK-293 cells): no significant effect
- apoptosis (MDCK-P2X7 cells): increased apoptosis
- apoptosis (HEK-293-P2X7 cells): further increased this baseline apoptosis
- expression of the P2X7-j protein ([2]; HEK-293 cells expressing P2X7-j, continuous 50 micromolar BzATP): did not decrease the expression of the P2X7-j protein
- expression of the P2X7 protein ([2]; HEK-293 cells expressing P2X7, 50 micromolar BzATP, each day up to 7 days): less than in cells not treated with BzATP
- Fluo-4 signal (cytosolic calcium) [3]: increased acutely the Fluo-4 signal
- calcium response to BzATP [4]: significantly smaller
- calcium response to BzATP [5]: significantly smaller
- ethidium bromide signaling (pore) [6]: increased ethidium bromide signaling
- ethidium bromide signaling response to BzATP [7]: significantly smaller
- ethidium bromide response to BzATP [8]: significantly smaller
- influx of ethidium bromide [9]: influx of ethidium bromide
